Measured values taken from the Deep4Chem optical property database.

Assay: solvent given as SMILES
Settings: in C1CCCCC1

Row | Structure (SMILES) | emission maximum [nm]
1 | COc1ccc(C2=C(c3ccc(OC)cc3)C(C)(C)c3cc(OC)ccc32)cc1 | 398
2 | Nc1ccc2c(c1)Cc1ccccc1-2 | 347
3 | CC1=N/C(=C\c2ccccc2N(C)C)C(=O)N1C | 472

Other lines, results leading:

Row | emission maximum [nm] | Structure (SMILES)
4 | 451 | CC1=N/C(=C\c2ccccc2N)C(=O)N1C
5 | 351 | c1cc(-c2ccc3c(c2)CCCO3)ccc1-c1ccc2c(c1)CCCO2

Same assay, conditions: in C1CCOC1

Row | Structure (SMILES) | emission maximum [nm]
6 | CC(C)(C)c1ccc(-c2nc3c4ccc(-c5cc6ccccc6c6ccccc56)cc4c4cc(-c5cc6ccccc6c6ccccc56)ccc4c3n2-c2ccc(C(C)(C)C)cc2)cc1 | 388
7 | CN(C)c1ccc(C2=Cc3ccc4ccccc4[n+]3[B-](F)(F)O2)cc1 | 540
8 | O=C(c1ccncc1)c1ccc(-n2c3ccc(-n4c5ccccc5c5ccccc54)cc3c3cc(-n4c5ccccc5c5ccccc54)ccc32)cc1 | 532.75
9 | O=P(c1ccccc1)(c1ccccc1)n1c2ccccc2c2ccccc21 | 360
10 | CC1=N/C(=C\c2ccccc2N(C)C)C(=O)N1C | 519

More lines, now with the values ahead:

Row | emission maximum [nm] | Structure (SMILES)
11 | 385 | CCC1(CC)c2cc(-c3cccs3)ccc2-c2c1c1c(c3c2C(CC)(CC)c2cc(-c4cccs4)ccc2-3)C(CC)(CC)c2cc(-c3cccs3)ccc2-1
12 | 472 | Cc1cc(C)c(-c2cc3c(s2)-c2sc(-c4c(C)cc(C)cc4C)cc2P(c2ccccc2)(c2ccccc2)=[O+][B-]3(c2c(C)cc(C)cc2C)c2c(C)cc(C)cc2C)c(C)c1
13 | 486 | C(=C\c1ccncn1)/c1ccc(N2CCCCC2)cc1
14 | 496 | C(=C\c1ccncn1)/c1ccc(N(c2ccccc2)c2ccccc2)cc1
15 | 593 | COc1cc2c(cc1-c1ccc(N(C)C)cc1)Cc1c3c(c4c(c1-2)-c1cc(OC)c(-c2ccc(N(C)C)cc2)cc1C4)C(=O)N(CCC(C)C)C3=O
16 | 527 | N#Cc1c(N2CCCCC2)cc(-c2ccc3ccccc3c2)c2c1-c1ccccc1C2=O
17 | 513 | CC1=N/C(=C\c2ccccc2N)C(=O)N1C

Same assay, conditions: in C1COCCO1

Row | Structure (SMILES) | emission maximum [nm]
18 | Nc1ccc2c(c1)Cc1ccccc1-2 | 363
19 | CC(C)(C)c1ccc(-c2nc3c4ccc(-c5cc6ccccc6c6ccccc56)cc4c4cc(-c5cc6ccccc6c6ccccc56)ccc4c3n2-c2ccc(C(C)(C)C)cc2)cc1 | 386
20 | CN(C)c1ccc(C2=Cc3ccc4ccccc4[n+]3[B-](F)(F)O2)cc1 | 516
21 | CCOC(=O)c1ccc(NC(=O)COc2cc3c4c([nH]c3c(C)c2C)C(=O)CCC4)cc1 | 408.59
22 | COC(=O)c1ccc(-c2ccc(-c3nnc(-c4ccc(-c5nnc(-c6ccc(-c7ccc(C(=O)OC)cc7)s6)o5)cc4)o3)s2)cc1 | 400

Same assay, conditions: in CC1CCCCC1

Row | Structure (SMILES) | emission maximum [nm]
23 | CN(C)c1ccc(C2=Cc3ccc4ccccc4[n+]3[B-](F)(F)O2)cc1 | 478

Same assay, conditions: in CC1CCCO1

Row | emission maximum [nm] | Structure (SMILES)
24 | 618 | CC1=CC(C)=[N+]2C1=C(c1ccc(C)cc1)c1c(C)cc(/C=C/c3ccc4ccc5cccc6ccc3c4c56)n1[B-]2(F)F

Same assay, conditions: in CC#N

Row | Structure (SMILES) | emission maximum [nm]
25 | Nc1ccc2c(c1)Cc1ccccc1-2 | 363
26 | CC(C)(C)c1ccc(-c2nc3c4ccc(-c5cc6ccccc6c6ccccc56)cc4c4cc(-c5cc6ccccc6c6ccccc56)ccc4c3n2-c2ccc(C(C)(C)C)cc2)cc1 | 405
27 | CN(C)c1ccc(C2=Cc3ccc4ccccc4[n+]3[B-](F)(F)O2)cc1 | 573
28 | CCOC(=O)c1ccc(NC(=O)COc2cc3c4c([nH]c3c(C)c2C)C(=O)CCC4)cc1 | 422.39
29 | CCCCCCCCCCCCCCCCCCN1C(=O)c2cccc3c(OCCN(C)C)ccc(c23)C1=O | 514
30 | CCC1=C(C)C2=Cc3c4ccccc4c4n3[B-](c3ccncc3)(Oc3ccccc3-4)[N+]2=C1C=Cc1ccc(OC)cc1 (stereo unspecified) | 712
31 | CC(C)(C)OC(=O)c1c(C=Cc2ccccc2)oc(NC2CCCCC2)c1C(=O)OC(C)(C)C | 462
32 | COC(=O)c1ccc(-c2ccc(-c3nnc(-c4ccc(-c5nnc(-c6ccc(-c7ccc(C(=O)OC)cc7)s6)o5)cc4)o3)s2)cc1 | 400
33 | CC1=N/C(=C\c2ccccc2N(C)C)C(=O)N1C | 536

Next, values leading:

Row | emission maximum [nm] | Structure (SMILES)
34 | 449 | CN1CCN(CCCN2c3ccccc3Sc3ccc(Cl)cc32)CC1
35 | 493 | Cc1cccc2c1nc1c(=O)n(C)c(=O)nc-1n2C
36 | 322 | O=c1[nH]cc(F)c(=O)[nH]1
37 | 514 | C(=C\c1ccncn1)/c1ccc(N2CCCCC2)cc1
38 | 545 | C(=C\c1ccncn1)/c1ccc(N(c2ccccc2)c2ccccc2)cc1
39 | 453 | CC1=N/C(=C\c2ccccc2N)C(=O)N1C
40 | 458 | c1cc2ccc3cccc4c(-c5cc(-c6nccs6)nc(-c6nccs6)c5)cc(c1)c2c34
41 | 552 | N#C/C(=C\c1ccc([N+](=O)[O-])cc1)c1nc(-c2ccccc2)cs1

Same assay, conditions: in CC(=O)N(C)C

Row | Structure (SMILES) | emission maximum [nm]
42 | COC(=O)c1ccc(-c2ccc(-c3nnc(-c4ccc(-c5nnc(-c6ccc(-c7ccc(C(=O)OC)cc7)s6)o5)cc4)o3)s2)cc1 | 417

Same assay, conditions: in CC(C)=O

Row | Structure (SMILES) | emission maximum [nm]
43 | CCCCCCCCCCCCCCCCCCN1C(=O)c2cccc3c(OCCN(C)C)ccc(c23)C1=O | 507
44 | O=P(c1ccccc1)(c1ccccc1)n1c2ccccc2c2ccccc21 | 406

Same assay, conditions: in CC(C)O

Row | Structure (SMILES) | emission maximum [nm]
45 | O=c1ccc2cc3c(cc2o1)OCC3 | 400
46 | Nc1ccc2c(c1)Cc1ccccc1-2 | 369

Same assay, conditions: in CCCCCC

Row | Structure (SMILES) | emission maximum [nm]
47 | Nc1ccc2c(c1)Cc1ccccc1-2 | 344
48 | CC(C)(C)c1ccc(-c2nc3c4ccc(-c5cc6ccccc6c6ccccc56)cc4c4cc(-c5cc6ccccc6c6ccccc56)ccc4c3n2-c2ccc(C(C)(C)C)cc2)cc1 | 382
49 | CCC1=C(C)C2=Cc3c4ccccc4c4n3[B-](c3ccncc3)(Oc3ccccc3-4)[N+]2=C1C=Cc1ccc(OC)cc1 (stereo unspecified) | 711
50 | c1cc2ccc3cccc4c(-c5cc(-c6nccs6)nc(-c6nccs6)c5)cc(c1)c2c34 | 392
51 | CC(C)c1ccc2ccc3c(C(C)C)ccc4ccc1c2c43 | 380

Same assay, conditions: in CCCCCCC

Row | emission maximum [nm] | Structure (SMILES)
52 | 435 | C(=C\c1ccncn1)/c1ccc(N2CCCCC2)cc1
53 | 443 | C(=C\c1ccncn1)/c1ccc(N(c2ccccc2)c2ccccc2)cc1

Row | Structure (SMILES) | emission maximum [nm]
54 | Nc1ccc2c(c1)Cc1ccccc1-2 | 344

Same assay, conditions: in CCCCCCCCCCO

Row | Structure (SMILES) | emission maximum [nm]
55 | COC(=O)c1ccc(-c2ccc(-c3nnc(-c4ccc(-c5nnc(-c6ccc(-c7ccc(C(=O)OC)cc7)s6)o5)cc4)o3)s2)cc1 | 408

Same assay, conditions: in CCCCCCCCO

Row | Structure (SMILES) | emission maximum [nm]
56 | COC(=O)c1ccc(-c2ccc(-c3nnc(-c4ccc(-c5nnc(-c6ccc(-c7ccc(C(=O)OC)cc7)s6)o5)cc4)o3)s2)cc1 | 399

Same assay, conditions: in CCCCCCO

Row | Structure (SMILES) | emission maximum [nm]
57 | COC(=O)c1ccc(-c2ccc(-c3nnc(-c4ccc(-c5nnc(-c6ccc(-c7ccc(C(=O)OC)cc7)s6)o5)cc4)o3)s2)cc1 | 389

Same assay, conditions: in CCCCO

Row | Structure (SMILES) | emission maximum [nm]
58 | COC(=O)c1ccc(-c2ccc(-c3nnc(-c4ccc(-c5nnc(-c6ccc(-c7ccc(C(=O)OC)cc7)s6)o5)cc4)o3)s2)cc1 | 394

Same assay, conditions: in CCCCOCCCC

Row | Structure (SMILES) | emission maximum [nm]
59 | CC(C)(C)c1ccc(-c2nc3c4ccc(-c5cc6ccccc6c6ccccc56)cc4c4cc(-c5cc6ccccc6c6ccccc56)ccc4c3n2-c2ccc(C(C)(C)C)cc2)cc1 | 384

Same assay, conditions: in CCN(CC)CC

Row | Structure (SMILES) | emission maximum [nm]
60 | CC(C)(C)c1ccc(-c2nc3c4ccc(-c5cc6ccccc6c6ccccc56)cc4c4cc(-c5cc6ccccc6c6ccccc56)ccc4c3n2-c2ccc(C(C)(C)C)cc2)cc1 | 384

Same assay, conditions: in CCO

Row | Structure (SMILES) | emission maximum [nm]
61 | O=c1ccc2cc3c(cc2o1)OCC3 | 402
62 | Nc1ccc2c(c1)Cc1ccccc1-2 | 368
63 | C#Cc1ccc2cc(/C=C/C(=O)OCC)c(=O)oc2c1 | 412
64 | CCOC(=O)c1cc(C(=O)OCC)c2cc(N(CC)CC)ccc2n1 | 561
65 | CCOC(=O)c1ccc(NC(=O)COc2cc3c4c([nH]c3c(C)c2C)C(=O)CCC4)cc1 | 464.31
66 | CCCCCCCCCCCCCCCCCCN1C(=O)c2cccc3c(OCCN(C)C)ccc(c23)C1=O | 510
67 | COC(=O)c1ccc(-c2ccc(-c3nnc(-c4ccc(-c5nnc(-c6ccc(-c7ccc(C(=O)OC)cc7)s6)o5)cc4)o3)s2)cc1 | 400

Same assay, conditions: in CCOC(C)=O

Row | Structure (SMILES) | emission maximum [nm]
68 | Nc1ccc2c(c1)Cc1ccccc1-2 | 360
69 | CC(C)(C)c1ccc(-c2nc3c4ccc(-c5cc6ccccc6c6ccccc56)cc4c4cc(-c5cc6ccccc6c6ccccc56)ccc4c3n2-c2ccc(C(C)(C)C)cc2)cc1 | 388
70 | CN(C)c1ccc(C2=Cc3ccc4ccccc4[n+]3[B-](F)(F)O2)cc1 | 534
71 | CCCCCCCCCCCCCCCCCCN1C(=O)c2cccc3c(OCCN(C)C)ccc(c23)C1=O | 497
